33 compounds from ChEMBL document CHEMBL1122346, “Antihypertensive activity of 6-arylpyrido[2,3-d]pyrimidin-7-amine derivatives. 2. 7-Acyl amide analogues” (J Med Chem, 1983) can be followed below.

Assay type in all cases: functional
Test [1] has as its system Rattus norvegicus. Nature of the test: Antihypertensive activity in conscious spontaneously hypertensive rats 24 hr following 50 mg/kg p.o.; No significant reduction. To be noted: route oral.
For test [2], the species on record is Rattus norvegicus. Kind of test: Maximum percent decrease in blood pressure in SHR ( hour post dose in parentheses).
In test [3] the test system is Rattus norvegicus. Nature of the test: Antihypertensive activity in conscious spontaneously hypertensive rats 10 hr following 50 mg/kg p.o.; Range 10-20%. To be noted: route oral.
Test [4] concerns Rattus norvegicus. Kind of test: Antihypertensive activity rating in conscious SHR after 2 hr post dose at 50 mg/kg (po); Range 10-20%.
The test system of test [5] is Rattus norvegicus. Kind of test: Antihypertensive activity rating in conscious SHR after 2 hr post dose at 50 mg/kg (po); Range 20-30%.
The subject of test [6] is Rattus norvegicus. Nature of the test: Antihypertensive activity rating in conscious SHR after 24 hr post dose at 50 mg/kg (po); Range 10-20%.
Test [7] concerns Rattus norvegicus. Nature of the test: Antihypertensive activity in conscious spontaneously hypertensive rats 2 hr following 50 mg/kg p.o.; No significant reduction. To be noted: route oral.
Test [8] has as its system Rattus norvegicus. Nature of the test: Antihypertensive activity in conscious spontaneously hypertensive rats 10 hr following 50 mg/kg p.o.; No significant reduction. The note with it: route oral.
Test [9] deals with Rattus norvegicus. Kind of test: Antihypertensive activity rating in conscious SHR after 10 hr post dose at 10 mg/kg (po); 0=No significant reduction.
The subject of test [10] is Rattus norvegicus. Nature of the test: Antihypertensive activity rating in conscious SHR after 2 hr post dose at 10 mg/kg (po); Range 10-20%.
The subject of test [11] is Rattus norvegicus. Nature of the test: Antihypertensive activity rating in conscious SHR after 24 h post dose at 10 mg/kg (po); 0=No significant reduction.
Test [12] relates to Rattus norvegicus. Nature of the test: Antihypertensive activity rating in conscious SHR after 10 hr post dose at 10 mg/kg (po); Range 10-20%.
For test [13], the system named is Rattus norvegicus. Kind of test: Antihypertensive activity rating in conscious SHR after 2 hr post dose at 10 mg/kg (po); 0=No significant reduction.

With `CC(=O)Nc1nc2nc(C3CC3)ncc2cc1-c1c(Cl)cccc1Cl`, the Activity rating in [1] came out at 0%; in test [3], 10%; in test [4], 10%. Also, the Decrease in test [2] is reported as 24%.

Turning to `C/N=C(\NC)Nc1nc2nc(C)ncc2cc1-c1c(Cl)cccc1Cl`, the Activity rating stood at 20% in test [5], 0% in test [1] and 10% in test [3]. The Decrease in [2] was 24%.

Turning to `Cc1ncc2cc(-c3c(Cl)cccc3Cl)c(NC(=O)c3cccc(N(C)C)c3)nc2n1`, in test [2], the Decrease is given as 15%. In addition, the figures for the Activity rating in [6], in [3] and in [7] were 10%, 10% and 0%, respectively.

With `C=CCNC(=O)Nc1nc2nc(C)ncc2cc1-c1c(Cl)cccc1Cl`, the Activity rating is reported as 0% in test [1], 10% in test [3] and 0% in [7]. Besides, the Decrease in test [2] is 13%.

With `CCNC(=O)Nc1nc2nc(C)ncc2cc1-c1c(Cl)cccc1Cl`, the Activity rating in test [1], in [8] and in [7] was 0% throughout.

For the compound `CCSCC(=O)Nc1nc2nc(C)ncc2cc1-c1c(Cl)cccc1Cl`, the figures for the Activity rating in test [9], in test [10] and in test [11] were 0%, 10% and 0%, respectively. Moreover, the Decrease in test [2] is listed as 19%.

Consider `Cc1ncc2cc(-c3c(Cl)cccc3Cl)c(NC(=O)C(Cl)Cl)nc2n1`, for which the Decrease in [2] is 16%. The results for the Activity rating in [10], in [11] and in test [12] were 10%, 0% and 10%, respectively.

Consider `Cc1ncc2cc(-c3c(Cl)cccc3Cl)c(NC(N)=O)nc2n1`, for which the Activity rating in [1], in test [8] and in test [7] was 0% in each case. For the same compound, in [2], the Decrease came out at 16%.

Turning to `COc1ccc(C(=O)Nc2nc3nc(C)ncc3cc2-c2c(Cl)cccc2Cl)cc1OC`, the Decrease in [2] is 16%. The figures for the Activity rating in [10], in test [11] and in [12] were 10%, 0% and 10%, respectively.

As for `Cc1ncc2cc(-c3c(Cl)cccc3Cl)c(NC(=O)c3ccccc3C)nc2n1`, the Decrease in test [2] is reported as 23%. Moreover, the figures for the Activity rating in [6], in test [3] and in [7] were 10%, 10% and 0%, respectively.

In the case of `Cc1ncc2cc(-c3c(Cl)cccc3Cl)c(NC(=O)C(C)(C)C)nc2n1`, the Activity rating in test [13], in test [9] and in test [11] was 0% in each case.

Consider `CN/C(=N/c1nc2nc(C)ncc2cc1-c1c(Cl)cccc1Cl)SC`, for which the Activity rating in [1], in [8] and in test [7] was 0% each time.

In the case of `CNC(=O)Nc1nc2nc(C)ncc2cc1-c1c(Cl)cccc1Cl`, the Activity rating was 20% in test [5], 0% in test [1] and 10% in test [3]. Further, the Decrease in test [2] is 26%.

With `C/N=C(\N)Nc1nc2nc(C)ncc2cc1-c1c(Cl)cccc1Cl`, the figures for the Activity rating in test [5], in test [1] and in test [3] were 20%, 0% and 10%, respectively. For the same compound, the Decrease in [2] is recorded as 24%.

Turning to `Cc1ncc2cc(-c3c(Cl)cccc3Cl)c(=O)n(C)c2n1`, the Activity rating in test [1], in [8] and in [7] was 0% each time.

In the case of `CC(=O)Nc1nc2ncncc2cc1-c1ccccc1C`, the Activity rating in test [1], in test [8] and in test [7] was 0% in each case.

In the case of `Cc1ncc2cc(-c3c(Cl)cccc3Cl)c(NC(=O)C(C)C)nc2n1`, the Activity rating in [9] stood at 0%; in test [10] it was 10%; in test [11] it was 0%. Further, in test [2], the Decrease is on record as 15%.

`CC(=O)Nc1nc2nc(C)ncc2cc1-c1ccccc1C`: the Activity rating in [1], in [8] and in test [7] was 0% each time.

Regarding `Cc1ncc2cc(-c3c(Cl)cccc3Cl)c(NC(=O)CN(C)C)nc2n1`, in test [2], the Decrease is 18%. Besides, the Activity rating is 10% in [10], 0% in test [11] and 10% in test [12].

Take `CC(=O)Nc1nc2nc(C)nc(C)c2cc1-c1ccccc1C`: the Activity rating in test [1], in test [8] and in test [7] was 0% each time.

Consider `COc1ccccc1C(=O)Nc1nc2nc(C)ncc2cc1-c1c(Cl)cccc1Cl`, for which the Activity rating in test [13], in test [9] and in test [11] was 0% in each case.

With `Cc1ncc2cc(-c3c(Cl)cccc3Cl)c(/N=C/N(C)C)nc2n1`, in test [2], the Decrease was found to be 17%. The figures for the Activity rating in [6], in test [3] and in test [7] were 10%, 10% and 0%, respectively.

For `Cc1ncc2cc(-c3c(Cl)cccc3Cl)c(NC(=O)c3ccccc3F)nc2n1`, the Activity rating in test [13], in test [9] and in [11] was 0% throughout.

In the case of `CC(=O)Nc1nc2nc(C)nc(C)c2cc1-c1c(Cl)cccc1Cl`, the Activity rating in test [5] is reported as 20%; in [1], 0%; in test [8], 0%. For the same compound, the Decrease in test [2] is on record as 20%.

Take `Cc1ncc2cc(-c3c(Cl)cccc3Cl)c(NC(=O)C3CC3)nc2n1`: the Activity rating in test [1], in test [8] and in test [7] was 0% throughout.

For `CC(=O)Nc1nc2ncncc2cc1-c1c(Cl)cccc1Cl`, the Activity rating was determined as 0% in test [1], 10% in test [3] and 10% in test [4]. Also, the Decrease in test [2] is 16%.

`Cc1ncc2cc(-c3c(Cl)cccc3Cl)c(NC(=O)OC(C)C)nc2n1`: the results for the Activity rating in test [13], in test [11] and in test [12] were 0%, 0% and 10%, respectively. In addition, the Decrease in test [2] is recorded as 15%.

For the compound `C/C(=N\c1nc2nc(C)ncc2cc1-c1c(Cl)cccc1Cl)N(C)C`, the Decrease in [2] was found to be 18%. For the same compound, the Activity rating in test [6] was 10%; in test [4] it was 10%; in test [8] it was 0%.

As for `Cc1ncc2cc(-c3c(Cl)cccc3Cl)c(NC(=O)Cc3c(Cl)cccc3Cl)nc2n1`, the Activity rating in test [13], in test [9] and in [11] was 0% in each case.

For `C/N=C(\S)Nc1nc2nc(C)ncc2cc1-c1c(Cl)cccc1Cl`, the figures for the Activity rating in test [1], in test [3] and in [7] were 0%, 10% and 0%, respectively. Moreover, the Decrease in test [2] was 12%.

`COc1ccc(CC(=O)Nc2nc3nc(C)ncc3cc2-c2c(Cl)cccc2Cl)cc1OC`: the Activity rating in test [13], in test [9] and in test [11] was 0% throughout.

On to `CC(=O)Nc1nc2nc(C)nc(NC(C)=O)c2cc1-c1c(Cl)cccc1Cl`, for which the Activity rating in test [1], in test [8] and in [7] was 0% throughout.

Regarding `Cc1ncc2cc(-c3c(Cl)cccc3Cl)c(NC(=O)Nc3ccccc3)nc2n1`, the Activity rating in test [1], in test [8] and in [7] was 0% throughout.
